This is an account of results in PubChem BioAssay AID254 (DTP/NCI, 2004).

In the experiment the test system is L1210 leukemia iv in BDF1 mice, survival T/C. Nature of the experiment: NCI In Vivo Anticancer Drug Screen. Data for tumor model L1210 Leukemia (intravenous) in B6D2F1 (BDF1) mice. As to conditions: higher = longer survival. As to the method:
The antitumor activity of compounds was measured in mice bearing transplantable tumors. Survival or tumor size were measured and the results are expressed as the measurement made in the treated group (T) divided by the measurement made in the vehicle treated control group (C). The tumor model used in this assay is L1210 Leukemia (intravenous) in B6D2F1 (BDF1) mice

Where [1] appears, read: endpoint: mean survival time, dose: 7.0 mg/kg/injection, schedule: Q01DX001 (ip), vehicle: other.
Where [2] appears, read: endpoint: mean survival time, dose: 31.0 mg/kg/injection, schedule: Q01DX001 (ip), vehicle: other.
[3] abbreviates: endpoint: mean survival time, dose: 62.0 mg/kg/injection, schedule: Q01DX001 (ip), vehicle: other.

Several values for one entry are separate records, joined by “and”; a condition that tells them apart may be missing. Equal entries are not always repeated. Toxic doses and inconclusive results are not listed.

On to `COc1cccc2c1C(=O)c1c(O)c3c(c(O)c1C2=O)CC(O)(C(=O)CO)CC3OC1CC(N)C(O)C(C)O1` (stereo unspecified), for which the T/C was 104 % of control (endpoint: mean survival time, dose: 0.75 mg/kg/injection, schedule: Q01DX005 (iv), vehicle: saline); 103 % of control (endpoint: mean survival time, dose: 1.5 mg/kg/injection, schedule: Q01DX005 (iv), vehicle: saline); 117 % of control (endpoint: mean survival time, dose: 3.0 mg/kg/injection, schedule: Q01DX005 (iv), vehicle: saline); 105 % of control (endpoint: mean survival time, dose: 4.0 mg/kg/injection, schedule: Q01DX005 (iv), vehicle: saline); 89 % of control (endpoint: mean survival time, dose: 5.0 mg/kg/injection, schedule: Q01DX005 (iv), vehicle: saline); 97 % of control (endpoint: mean survival time, dose: 6.0 mg/kg/injection, schedule: Q01DX005 (iv), vehicle: saline). Besides, the T/C is 96 % of control (endpoint: mean survival time, dose: 7.0 mg/kg/injection, schedule: Q01DX005 (iv), vehicle: saline) and 90 % of control (endpoint: mean survival time, dose: 8.0 mg/kg/injection, schedule: Q01DX005 (iv), vehicle: saline).
On to `O=NN(CCF)C(=O)NC1CCSCC1`, for which the T/C (endpoint: mean survival time, dose: 3.7 mg/kg/injection, schedule: Q01DX001 (ip), vehicle: other) was 154 % of control; the T/C under setting [1] was 206 % of control and 227 % of control; the T/C (endpoint: mean survival time, dose: 15.0 mg/kg/injection, schedule: Q01DX001 (ip), vehicle: other) was 365 % of control and 575 % of control; the T/C under setting [2] was 634 % of control and 642 % of control; the T/C under setting [3] is 515 % of control and 856 % of control.
As to `O=P1(N(CCCl)CCCl)NCCCO1` (stereo unspecified), the T/C (endpoint: mean survival time, dose: 28.0 mg/kg/injection, schedule: Q01DX001 (ip), vehicle: saline) was 106 % of control and 109 % of control; the T/C (endpoint: mean survival time, dose: 60.0 mg/kg/injection, schedule: Q01DX001 (ip), vehicle: saline) is 155 % of control and 165 % of control; the T/C (endpoint: mean survival time, dose: 64.0 mg/kg/injection, schedule: Q01DX001 (ip), vehicle: saline) was 169 % of control; the T/C (endpoint: mean survival time, dose: 75.0 mg/kg/injection, schedule: Q01DX001 (ip), vehicle: saline) was 154 % of control and 164 % of control and 171 % of control; the T/C (endpoint: mean survival time, dose: 80.0 mg/kg/injection, schedule: Q01DX001 (ip), vehicle: saline) is 158 % of control and 165 % of control; the T/C (endpoint: mean survival time, dose: 80.0 mg/kg/injection, schedule: Q04DX004 (ip), vehicle: saline) is 206 % of control. In addition, the T/C was 170 % of control (endpoint: mean survival time, dose: 83.0 mg/kg/injection, schedule: Q01DX001 (ip), vehicle: saline); 162 % of control and 202 % of control (endpoint: mean survival time, dose: 118.0 mg/kg/injection, schedule: Q01DX001 (ip), vehicle: saline); 285 % of control (endpoint: mean survival time, dose: 120.0 mg/kg/injection, schedule: Q04DX004 (ip), vehicle: saline); 390 % of control and 290 % of control and 304 % of control (endpoint: mean survival time, dose: 225.0 mg/kg/injection, schedule: Q01DX001 (ip), vehicle: saline); 522 % of control and 302 % of control (endpoint: mean survival time, dose: 234.0 mg/kg/injection, schedule: Q01DX001 (ip), vehicle: saline); 500 % of control (endpoint: mean survival time, dose: 468.0 mg/kg/injection, schedule: Q01DX001 (ip), vehicle: saline).
`N[C@@H](Cc1ccc(N(CCCl)CCCl)cc1)C(=O)O`: the T/C by setting is: (endpoint: mean survival time, dose: 0.1 mg/kg/injection, schedule: Q01DX015 (ip), vehicle: carboxymethylcellulose (CMC)) 94 % of control and 103 % of control; (endpoint: mean survival time, dose: 0.2 mg/kg/injection, schedule: Q01DX015 (ip), vehicle: carboxymethylcellulose (CMC)) 107 % of control and 96 % of control; (endpoint: mean survival time, dose: 0.4 mg/kg/injection, schedule: Q01DX015 (ip), vehicle: carboxymethylcellulose (CMC)) 107 % of control and 98 % of control; (endpoint: mean survival time, dose: 0.8 mg/kg/injection, schedule: Q01DX015 (ip), vehicle: carboxymethylcellulose (CMC)) 100 % of control and 103 % of control; (endpoint: mean survival time, dose: 1.13 mg/kg/injection, schedule: Q01DX001 (ip), vehicle: carboxymethylcellulose (CMC)) 105 % of control; (endpoint: mean survival time, dose: 1.6 mg/kg/injection, schedule: Q01DX015 (ip), vehicle: carboxymethylcellulose (CMC)) 107 % of control and 101 % of control. In addition, the T/C is, setting by setting: (endpoint: mean survival time, dose: 1.7 mg/kg/injection, schedule: Q01DX001 (ip), vehicle: carboxymethylcellulose (CMC)) 95 % of control and 102 % of control; (endpoint: mean survival time, dose: 2.25 mg/kg/injection, schedule: Q01DX001 (ip), vehicle: carboxymethylcellulose (CMC)) 109 % of control and 96 % of control; (endpoint: mean survival time, dose: 3.0 mg/kg/injection, schedule: Q01DX001 (ip), vehicle: carboxymethylcellulose (CMC)) 106 % of control and 97 % of control; (endpoint: mean survival time, dose: 4.5 mg/kg/injection, schedule: Q01DX001 (ip), vehicle: carboxymethylcellulose (CMC)) 105 % of control and 113 % of control; (endpoint: mean survival time, dose: 4.75 mg/kg/injection, schedule: Q01DX001 (ip), vehicle: Klucel (hydroxypropylcellulose) (HPC)) 104 % of control and 105 % of control; (endpoint: mean survival time, dose: 7.0 mg/kg/injection, schedule: Q01DX001 (ip), vehicle: carboxymethylcellulose (CMC)) 105 % of control. Further, the T/C runs as follows: (endpoint: mean survival time, dose: 9.0 mg/kg/injection, schedule: Q01DX001 (ip), vehicle: carboxymethylcellulose (CMC)) 155 % of control; (endpoint: mean survival time, dose: 14.0 mg/kg/injection, schedule: Q01DX001 (ip), vehicle: carboxymethylcellulose (CMC)) 181 % of control; (endpoint: mean survival time, dose: 14.25 mg/kg/injection, schedule: Q01DX001 (ip), vehicle: Klucel (hydroxypropylcellulose) (HPC)) 177 % of control; (endpoint: mean survival time, dose: 15.0 mg/kg/injection, schedule: Q01DX001 (ip), vehicle: saline) 163 % of control and 195 % of control; (endpoint: mean survival time, dose: 18.0 mg/kg/injection, schedule: Q01DX001 (ip), vehicle: carboxymethylcellulose (CMC)) 190 % of control and 255 % of control; (endpoint: mean survival time, dose: 19.0 mg/kg/injection, schedule: Q01DX001 (ip), vehicle: Klucel (hydroxypropylcellulose) (HPC)) 214 % of control and 215 % of control. For the same compound, the T/C is, setting by setting: (endpoint: mean survival time, dose: 23.75 mg/kg/injection, schedule: Q01DX001 (ip), vehicle: Klucel (hydroxypropylcellulose) (HPC)) 177 % of control; (endpoint: mean survival time, dose: 29.0 mg/kg/injection, schedule: Q01DX001 (ip), vehicle: carboxymethylcellulose (CMC)) 206 % of control.
On to `O=NN(CCCl)C(=O)NCCCl`, for which the T/C is 152 % of control and 175 % of control under setting [1]; 197 % of control (endpoint: mean survival time, dose: 10.0 mg/kg/injection, schedule: Q01DX001 (ip), vehicle: other); 347 % of control (2×) and 204 % of control (endpoint: mean survival time, dose: 10.0 mg/kg/injection, schedule: Q01DX001 (ip), vehicle: saline + alcohol); 256 % of control (endpoint: mean survival time, dose: 10.0 mg/kg/injection, schedule: Q04DX004 (ip), vehicle: other); 719 % of control (endpoint: mean survival time, dose: 15.0 mg/kg/injection, schedule: Q04DX004 (ip), vehicle: other); 263 % of control (endpoint: mean survival time, dose: 18.0 mg/kg/injection, schedule: Q01DX001 (ip), vehicle: saline + alcohol). For the same compound, the T/C is 629 % of control (endpoint: mean survival time, dose: 20.0 mg/kg/injection, schedule: Q04DX004 (ip), vehicle: other); 335 % of control and 283 % of control and 316 % of control (endpoint: mean survival time, dose: 27.0 mg/kg/injection, schedule: Q01DX001 (ip), vehicle: other); 358 % of control (endpoint: mean survival time, dose: 27.0 mg/kg/injection, schedule: Q01DX001 (ip), vehicle: saline + alcohol); 481 % of control and 523 % of control and 549 % of control (endpoint: mean survival time, dose: 27.0 mg/kg/injection, schedule: Q01DX001 (oral), vehicle: other); 385 % of control (endpoint: mean survival time, dose: 30.0 mg/kg/injection, schedule: Q01DX001 (ip), vehicle: other); 621 % of control (endpoint: mean survival time, dose: 30.0 mg/kg/injection, schedule: Q04DX004 (ip), vehicle: other). Also, the T/C is, setting by setting: under setting [2], 342 % of control and 248 % of control; (endpoint: mean survival time, dose: 39.0 mg/kg/injection, schedule: Q01DX001 (ip), vehicle: other) 373 % of control and 400 % of control and 473 % of control; (endpoint: mean survival time, dose: 40.0 mg/kg/injection, schedule: Q01DX001 (oral), vehicle: other) 553 % of control and 633 % of control and 678 % of control; (endpoint: mean survival time, dose: 49.0 mg/kg/injection, schedule: Q01DX001 (ip), vehicle: other) 466 % of control and 478 % of control and 532 % of control; (endpoint: mean survival time, dose: 60.0 mg/kg/injection, schedule: Q01DX001 (oral), vehicle: other) 434 % of control and 471 % of control and 625 % of control; under setting [3], 120 % of control and 297 % of control. The T/C reads like this: (endpoint: median survival time, dose: 18.0 mg/kg/injection, schedule: Q## X001 (ip), vehicle: saline + alcohol) 188 % of control; (endpoint: median survival time, dose: 30.0 mg/kg/injection, schedule: Q## X001 (ip), vehicle: saline + alcohol) 241 % of control; (endpoint: median survival time, dose: 48.0 mg/kg/injection, schedule: Q## X001 (ip), vehicle: saline + alcohol) 297 % of control.
